The values that follow come from patent publication US4360511A, “Amines useful as brain imaging agents” (Medi-Physics, Inc., priority 1980, dated 1982).

The conditions of data set [1]: Friedman et al, July 1978; cited from earlier work.
A short description of data set [2]: Bioassay: distribution of I-123-labeled compounds in organs of rats after tail vein injection (percent dose/gram, brain/blood ratio). Type of data set: in vivo, Female Sprague-Dawley rats. Particulars: for Brain/Blood Ratio 5 min. / tissue uptake at 5 min: 5 minutes post-injection; for Brain/Blood Ratio 60 min. / tissue uptake at 1 h: 60 minutes post-injection; for tissue uptake at 5 min / tissue uptake at 1 h: rat, iv, 0.05 to 1.0 mCi, two rats. As to the method:
Female Sprague-Dawley rats weighing approximately 150 g were anesthetized with sodium pentobarbital and were injected in a tail vein with from 0.05 to 1.0 mCi (in a volume of 0.2 to 0.5 ml) of the I-123-labeled compound. Two specimens were utilized for each test.
Two animals each were sacrificed at 5 minutes and 60 minutes post-injection, the tails discarded and the amount of activity in various organs determined. Each organ was counted at a standardized geometry with a sodium iodide crystal scintillation counter adjusted for the 159 keV emission of I-123. The organs were also weighed to one thousandth of a gram and the activity calculated as a percent of administered dose per gram of organ weight.
The ratio of brain-to-blood activity was calculated as a percent of administered dose per gram.

For data set [3] the following is noted: Robinson et al, J Nucl Med 17, p 1093 (1976); cited from earlier work.
Setting [4] is: blood, read-out: Percent Dose/Gram Blood 5 min.
Setting [5] is: blood, read-out: Percent Dose/Gram Blood 60 min.
The mark [6] stands for this setting: brain, read-out: Percent Dose/Gram Brain 5 min.
The mark [7] stands for this setting: brain, read-out: Percent Dose/Gram Brain 60 min.
[8] abbreviates: heart, read-out: Percent Dose/Gram Heart 5 min.
The mark [9] stands for this setting: heart, read-out: Percent Dose/Gram Heart 60 min.

Read-outs that look alike come from different tables or passages of the source.

Regarding 5-hydroxytryptophan, in data set [1], the “activity carried across the blood/brain barrier” value was “carried some activity across the blood/brain barrier” and the decarboxylation in vivo entry is “decarboxylated in vivo”.
With `[123I]c1ccccc1CNCCc1ccccc1` [I--123-N--β-phenethyl-o-iodobenzylamine], the “Brain/Blood Ratio 5 min.” value in data set [2] came out at 2.52. The “Brain/Blood Ratio 60 min.” value in data set [2] was determined as 0.96. Besides, the tissue uptake at 5 min came to 0.27 %ID/g in data set [2] (setting [4]), 0.68 %ID/g in data set [2] (setting [6]) and 0.56 %ID/g in data set [2] (setting [8]). The tissue uptake at 1 h stood at 0.14 %ID/g in data set [2] (setting [5]), 0.14 %ID/g in data set [2] (setting [7]) and 0.15 %ID/g in data set [2] (setting [9]).
`[123I]c1ccc(NCCc2ccccc2)cc1` [I--123-N--β-phenethyl-p-iodoaniline]: in data set [2], the “Brain/Blood Ratio 5 min.” value is 1.06. Moreover, the values for the tissue uptake at 5 min in data set [2] (setting [4]), in data set [2] (setting [6]) and in data set [2] (setting [8]) were 0.88 %ID/g, 0.93 %ID/g and 1.38 %ID/g, respectively.
`CC(C)N[C@H](C)Cc1ccc([123I])cc1` [I--123-R--N--isopropyl-p-iodoamphetamine, I-123-R-N-isopropyl-p-iodoamphetamine]: in data set [2], the “Brain/Blood Ratio 5 min.” value is 12.60. The “Brain/Blood Ratio 60 min.” value in data set [2] is listed as 20.70. In addition, the tissue uptake at 5 min in data set [2] (setting [4]) worked out at 0.14 %ID/g; in data set [2] (setting [6]), 1.57 %ID/g; in data set [2] (setting [8]) it was 1.78 %ID/g. Besides, the figures for the tissue uptake at 1 h in data set [2] (setting [5]), in data set [2] (setting [7]) and in data set [2] (setting [9]) were 0.11 %ID/g, 2.14 %ID/g and 0.87 %ID/g, respectively.
For `C[C@@H](N)Cc1ccc([123I])cc1` [I--123-R--p-iodoamphetamine, I-123-R-p-iodoamphetamine], the “Brain/Blood Ratio 5 min.” value in data set [2] is listed as 10.60. The “Brain/Blood Ratio 60 min.” value in data set [2] is 18.50. The results for the tissue uptake at 5 min in data set [2] (setting [4]), in data set [2] (setting [6]) and in data set [2] (setting [8]) were 0.15 %ID/g, 1.38 %ID/g and 2.43 %ID/g, respectively. Further, the tissue uptake at 1 h came to 0.12 %ID/g in data set [2] (setting [5]), 2.07 %ID/g in data set [2] (setting [7]) and 1.09 %ID/g in data set [2] (setting [9]).
For `CC(C)N[C@@H](C)Cc1ccc([123I])cc1` [I--123-S--N--isopropyl-p-iodoamphetamine, I-123-S-N-isopropyl-p-iodoamphetamine], the “Brain/Blood Ratio 5 min.” value in data set [2] is 12.80. Besides, the “Brain/Blood Ratio 60 min.” value in data set [2] was 15.40. For the same compound, the tissue uptake at 5 min was 0.11 %ID/g in data set [2] (setting [4]), 1.32 %ID/g in data set [2] (setting [6]) and 1.28 %ID/g in data set [2] (setting [8]). Also, the tissue uptake at 1 h is 0.13 %ID/g in data set [2] (setting [5]), 1.93 %ID/g in data set [2] (setting [7]) and 0.85 %ID/g in data set [2] (setting [9]).
For `C[C@H](N)Cc1ccc([123I])cc1` [I--123-S--p-iodoamphetamine, I-123-S-p-iodoamphetamine], the “Brain/Blood Ratio 5 min.” value in data set [2] amounted to 7.04. In data set [2], the “Brain/Blood Ratio 60 min.” value was 11.30. The tissue uptake at 5 min in data set [2] (setting [4]) was 0.17 %ID/g; in data set [2] (setting [6]) it was 1.22 %ID/g; in data set [2] (setting [8]), 1.52 %ID/g. For the same compound, the tissue uptake at 1 h in data set [2] (setting [5]) amounted to 0.17 %ID/g; in data set [2] (setting [7]), 1.88 %ID/g; in data set [2] (setting [9]) it was 0.86 %ID/g.
Consider `Cc1c([123I])c(=O)n(-c2ccccc2)n1C` [I--123-iodoantipyrine, I-123 labeled 4-iodoantipyrine, reference compound], for which the values for the tissue uptake at 1 h in data set [2] (setting [5]), in data set [2] (setting [7]) and in data set [2] (setting [9]) were 0.94 %ID/g, 0.17 %ID/g and 0.53 %ID/g, respectively. In data set [3], the “concentration in the brain” value is given as “suboptimal concentration in the brain”. Besides, the in vivo deiodination result in data set [3] is given as “rapid in vivo deiodination”.
Turning to `NCCc1ccccc1[123I]` [I--123-o-iodo-β-phenethylamine], the “Brain/Blood Ratio 5 min.” value in data set [2] is listed as 0.49. For the same compound, the tissue uptake at 5 min in data set [2] (setting [4]) worked out at 1.43 %ID/g; in data set [2] (setting [6]), 0.7 %ID/g; in data set [2] (setting [8]), 1.22 %ID/g.
Consider `Nc1ccccc1[123I]` [I--123-o-iodoaniline], for which, in data set [2], the “Brain/Blood Ratio 5 min.” value turned out to be 0.28. For the same compound, the “Brain/Blood Ratio 60 min.” value in data set [2] was determined as 0.07. Moreover, the tissue uptake at 5 min in data set [2] (setting [4]) was 1.7 %ID/g; in data set [2] (setting [6]), 0.47 %ID/g; in data set [2] (setting [8]), 1.02 %ID/g. Moreover, the tissue uptake at 1 h in data set [2] (setting [5]) was 0.44 %ID/g; in data set [2] (setting [7]), 0.03 %ID/g; in data set [2] (setting [9]), 0.17 %ID/g.
On to `Nc1ccc([123I])cc1` [I--123-p-iodoaniline], for which the “Brain/Blood Ratio 5 min.” value in data set [2] was found to be 1.12. Moreover, in data set [2], the “Brain/Blood Ratio 60 min.” value was found to be 1.00. In addition, the tissue uptake at 5 min came out at 0.97 %ID/g in data set [2] (setting [4]), 1.09 %ID/g in data set [2] (setting [6]) and 1.11 %ID/g in data set [2] (setting [8]). Further, the tissue uptake at 1 h in data set [2] (setting [5]), in data set [2] (setting [7]) and in data set [2] (setting [9]) was 0.8 %ID/g each time.
Take `NC(=O)C(Nc1ccc([123I])cc1)c1ccccc1` (stereo not drawn) [I--123-α-(p-iodoanilino)phenylacetamide]: the “Brain/Blood Ratio 5 min.” value in data set [2] stood at 1.30. Further, the results for the tissue uptake at 5 min in data set [2] (setting [4]), in data set [2] (setting [6]) and in data set [2] (setting [8]) were 0.71 %ID/g, 0.92 %ID/g and 1.42 %ID/g, respectively.
Take `N#CC(N)c1ccccc1[123I]` (stereo not drawn) [I--123-α-amino-o-iodophenylacetonitrile]: the “Brain/Blood Ratio 5 min.” value in data set [2] is given as 1.74. Further, the tissue uptake at 5 min in data set [2] (setting [4]) is 0.34 %ID/g; in data set [2] (setting [6]), 0.58 %ID/g; in data set [2] (setting [8]), 0.86 %ID/g.
Take `N#CC(Nc1ccccc1)c1ccccc1[123I]` (stereo not drawn) [I--123-α-anilino-o-iodophenylacetonitrile]: in data set [2], the “Brain/Blood Ratio 5 min.” value is 4.68. Besides, the “Brain/Blood Ratio 60 min.” value in data set [2] was found to be 1.41. The tissue uptake at 5 min stood at 0.17 %ID/g in data set [2] (setting [4]), 0.8 %ID/g in data set [2] (setting [6]) and 0.9 %ID/g in data set [2] (setting [8]). Besides, the tissue uptake at 1 h worked out at 0.1 %ID/g in data set [2] (setting [5]), 0.14 %ID/g in data set [2] (setting [7]) and 0.24 %ID/g in data set [2] (setting [9]).
